Results published in US8394397B2, “Adhesive antineoplastic compositions” (Ed. Geistlich Soehne AG fuer Chemische Industrie, priority 2003, dated 2013).

Assays:
[1] = cited from earlier work
[2] = system: glial tumor cell lines LN18, LN229, U87MG, and ex vivo cells from a freshly isolated glioblastoma; assay: Crystal violet assay of tumor cells incubated with taurolidine released from the matrices; format: cell-based
Experimental: To determine whether the antineoplastic activity of taurolidine was affected by embedding in the matrix, the glial tumor cell lines LN18, LN229, U87MG, and ex vivo cells from a freshly isolated glioblastoma were incubated with taurolidine released from the matrices at different periods.
The LN18, LN229, and U87MG tumor cells and ex vivo cells from a glioblastoma were seeded in […] plastic cell culture flasks until a cell confluency of 80% was reached. The resulting cell suspensions were centrifuged at 1200 rpm for 5 min and then diluted to yield cell suspensions containing 5×10^4 cells per ml. Aliquots of 200 μl of the cell suspensions were pipetted into the wells of a 96-multiwell plate.
After 12 hours when the cells were adherent the medium was removed and replaced by fresh medium. The cells were incubated for 24 hours and the taurolidine solution released at different time intervals from the matrices loaded with different taurolidine concentrations. Tumor cells incubated with the same volume of supernatant from fibrin sealant matrix without taurolidine were used as negative controls. Identically treated cells to which Fas-ligand at a concentration of 25% was added served as positive controls.
After incubation for 24 hours, the supernatants were removed and 100 μl of crystal violet staining solution (0.5% crystal violet in 19.5% methanol and 80% distilled water) added. The solution was removed after 10 min and residual dye rinsed off with tap water. The plates were then left to air-dry for 12 hours followed by counting in a microplate counter at 540 nm.

[3] = Long-term release kinetics of taurolidine from fibrin sealant matrix over 14 days; format: physicochemical; conditions: for percentage of taurolidine released from the matrix: irrespective of loading concentrations
Experimental: The long-term release kinetics of taurolidine was investigated by homogenously suspending different concentrations of taurolidine in the two components of the fibrin sealant in such a way that final concentrations (mg/ml) of 10, 40 and 80 mg/ml were achieved per 400 μl of fresh PBS at 24-hour intervals over a period of 14 days. The supernatants from the wells containing identical taurolidine concentrations were pooled. The taurolidine concentrations in the supernatants were determined.

[4] = Taurolidine release from fibrin sealant matrix into PBS supernatant over 7 days; format: physicochemical; conditions: irrespective of initial taurolidine concentration, 37° C.
Experimental: Different concentrations of taurolidine were homogenously suspended in the two components of the fibrin sealant. The two components were then mixed in wells of a 24-multiwell plate to prepare matrixes with identical total volumes of 400 μl per well containing final taurolidine concentrations of 10, 20, 40 and 80 mg/ml. The resulting thickness of the matrix was 2 mm ±0.4 mm. In addition, matrices with volumes of 400 μl and 800 μl containing 10 mg/ml or 40 mg/ml of taurolidine were prepared to investigate the effect of matrix size on taurolidine release. […] Matrices of identical volume and thickness without taurolidine served as controls. Supernatants of 400 μl phosphate-buffered saline (PBS) were added to each well after solidification. The multiwell plates were incubated at 37° C. The supernatants were pipetted off at 24-hour intervals over a period of 7 days and replaced by identical amounts of fresh PBS.

For `O=S1(=O)CCN(CN2CCS(=O)(=O)NC2)CN1` [Taurolidine, Bis-(1,1-dioxoperhydro-1,2,4-thiadiazinyl-4)methane], the “water soluble up to” value [1] is given as “up to 2%”, the “proliferation of tumor cell lines and ex vivo glioblastoma cells” value ([2]; taurolidine released from matrices, 24 hours incubation) is given as “inhibited in an concentration-dependent manner” and the “reduction of cell counts” value ([2]; taurolidine released on day 3, loading concentration 100 mg/ml) is given as “at least 60%”. The “effect on tumor cell proliferation” value ([2]; taurolidine released on day 13 from TFM, initial loading concentration 10 mg/ml) was “no further effects on tumor cell proliferation”, the “percentage of taurolidine released from the matrix” value ([3]; after 10 days) was 98.93%±0.33 and the “percentage of taurolidine released from the matrix” value ([3]; after 14 days) was 99.99%±0.02. For the same molecule, the “period over which antineoplastically effective amounts of taurolidine were released” value ([3]; loading concentrations of 25 mg/ml or above) was 14 days, the “taurolidine released on day 14” value ([3]; loading concentrations of 50 mg/ml or higher, day 14) was “over 100 μg/ml” and the “percentage of total taurolidine released from the matrix” value ([4]; within 6 days) was 75.2±6.64%. For the same molecule, the “percentage of total taurolidine released from the matrix” value ([4]; within the first 2 days) was 54.7±1.44%.
